Assay results published in US8071763B2, “Methods for treatment of nocturia” (Daiichi Sankyo Company, Limited, priority 2002, dated 2011).

Tested on: nocturia
Test: Single BPH patient taking a loxoprofen sodium tablet before sleeping
Type: in vivo, human
Conditions: one patient treated for BPH; 60-mg tablet before sleeping
Protocol: Based on the experience, the inventor conducted a non-randomized trial treatment with loxoprofen, a short-acting nonsteroidal anti-inflammatory drug (NSAID) prodrug usually prescribed at a dosage of 60 mg t.i.d. for the management of pain, in patients bothered by nocturia. […] The invention was achieved on the basis of these findings.

In the case of `CC(C(=O)O)c1ccc(CC2CCCC2=O)cc1` (stereo not shown) [loxoprofen, loxoprofen sodium], the “Nocturia, voids/night” value is reported as “decreased from a usual of four voids to one void/night”.
